# Entries after “also recorded” stand apart in the source; their conditions may differ.
# Key:
# [1] = test system: monoclonal antibody 12-9-9; assay: In vitro binding assay (ELISA) with monoclonal antibody 12-9-9; parameters: species or system mouse; key to Binding: 0: no binding to 12-9-9 detectable in ELISA; 1: weak binding: binding of mimotope weaker compared to the minimal original sequence p5436; 2: strong binding: binding of mimotope similar to the minimal original sequence p5436; details: for Binding: binding capacity to 12-9-9 in ELISA, peptide-BSA coated (1 μM), compared with p5436; for detection/binding by monoclonal antibody 12-9-9 in ELISA: result in words
# Description: A monoclonal antibody derived from the fusion “AFFiRiS 6”: Balb/c mice (Charles River) were immunized with original alpha-synuclein epitope LGKNEEGAPQ-C (SEQ ID NO:3) coupled to BTG (bovine thyroglobuline) and CFA (complete Freund's adjuvant; first injection) as well as IFA (incomplete Freund's adjuvant; 3 booster injections) as adjuvant. LGKNEEGAPQ-peptide-specific (SEQ ID NO: 203) antibody-producing hybridomas are detected by ELISA (LGKNEEGAPQC-peptide-coated (SEQ ID NO: 3)ELISA plates). Human alpha-synuclein (recombinant protein, p4446) is used as positive control peptide: hybridomas recognizing the recombinant protein immobilized on ELISA plates are included because they are binding both peptide and full length alpha-synuclein specifically. […] The Hybridoma clone (12-9-9; IgG1, kappa) was analysed for specific detection of the natural human alpha-synuclein epitope LGKNEEGAPQ. (SEQ ID NO: 203). 12-9-9 recognizes the injected epitope as well as full length alpha-synuclein protein (recombinant protein; obtained from rPeptide, Bogart, Ga., USA) in ELISA (see FIG. 2). […] Thus the minimal required epitope for binding has been defined as KNEEGAP (SEQ ID NO: 139).
# Peptides derived from Phage Display as well as N-terminally truncated variants thereof were coupled to BSA and bound to ELISA plates (1 μM) and subsequently incubated with the monoclonal antibody that was used for the screening procedure to analyse binding capacity of identified peptides (see FIG. 4).
# [2] = test system: monoclonal antibody 12-9-9; assay: In vitro inhibition assay (ELISA); format: binding, mouse; parameters: key: 0: no competition of 12-9-9 detectable in ELISA; 1: weak competition: competition of mimotope weaker compared to the minimal original sequence p5436; 2: strong competition: competition of mimotope similar to the minimal original sequence p5436; details: competition capacity in ELISA, peptide 400 μg/ml to 3 μg/ml, plates coated with p5436 and p4446
# Procedure: Different amounts of peptides (concentrations ranging from 400 μg/ml to 3 μg/ml (serial dilutions), derived from Phage Display were incubated with the monoclonal antibody that was used for the screening procedure. Peptides diminishing subsequent binding of the antibody to the original human alpha-synuclein epitope (p5436) and the human alpha-synuclein protein (p4446) coated on ELISA plates were considered as inhibiting in this assay.
# [3] = test system: recombinant human alpha-synuclein protein; assay: In vivo testing of mimotopes: serum titer against alpha-synuclein (ELISA); details: mice immunized with peptide-KLH, alum, OD halfmax
# Procedure: (§1) Inhibiting as well as non-inhibiting peptides were coupled to KLH and injected into mice (wildtype C57/B16 or BalbC mice; subcutaneous injection into the flank) together with an appropriate adjuvant (aluminium hydroxide). Animals were vaccinated 3 times in biweekly intervals and sera were taken biweekly as well. Titers to injected peptides as well as to an irrelevant peptide were determined with every serum. Titers against the recombinant human alpha-synuclein protein and recombinant human beta-synuclein were determined starting with Serum 2 respectively. In general sera were analysed by reaction against peptides coupled to Bovine Serum Albumin (BSA) and recombinant full length proteins which were immobilised on ELISA plates. Titers were determined using anti mouse IgG specific antibodies. For examples of immunogenicity against injected peptide and alpha-synuclein see Table 5 and Table 6.
# (§2) Female C57/B16 mice or BalbC, 5-6 mice per group, were subcutaneously immunized with 30 μg peptide coupled to KLH. Control groups were injected with PBS or the original epitope. As adjuvant alum was used. The peptides administered were all able to bind to monoclonal antibodies specifically binding aa100-109 of human alpha-synuclein although some of the peptides did inhibit the binding of the original epitope to its parental antibody in vitro only weakly (in an in vitro inhibition assay). The in vitro ELISA assay to determine the antibody titer was performed with sera of single mice (see Tab. 5) after each vaccination in a two week interval. The wells of the ELISA plate were coated with mimotope-BSA conjugates. The positive control was performed by reaction of the parental antibody with the respective mimotope-BSA conjugate. The detection was performed with anti-mouse IgG. Additionally, recombinant proteins were immobilised on ELISA plates and sera reacted accordingly. For all mimotopes tested in C57/B16 mice or BalbC, antibodies reacting to the individual injected peptide could be detected after repeated vaccination. Although not all mice induced higher titer against alpha-synuclein (see tab. 5 for examples).
# [4] = In vivo testing of mimotopes: serum titer against injected peptide (ELISA); details: mice, 30 μg peptide coupled to KLH, alum, s.c.; titer by ELISA as OD halfmax
# Procedure: as §1, §2
Binding [1],Substance,other results
2,"ANEEGAPC [p5437, mimotope]",–
2,"APSWKGEC [p5556, mimotope]",Competition [2]: 1; class of immunogenicity: a Syn [3]: 0 (peptides inducing no immune response or a very low immune response with OD halfmax around 50 or lower.)
1,"ASEEGAPC [p5594, mimotope]",–
2,"GKNEEGAPQC [p5397, reference compound]",detection/binding by monoclonal antibody 12-9-9 in ELISA [1]: retained full binding capacities; Competition [2]: 2
2,"KNDDGAPC [p5449, mimotope]",Competition [2]: 1
2,"KNEDGAPC [p5446, mimotope]",Competition [2]: 1
2,"KNEEGAPQC [p5398, reference compound]",detection/binding by monoclonal antibody 12-9-9 in ELISA [1]: retained full binding capacities; Competition [2]: 2
2,"KSAEGAPC [p5599, mimotope]",–
2,"KSEEGAPC [p5448, mimotope]",Competition [2]: 1
2,"RNAEGAPC [p5597, mimotope]",Competition [2]: 1; class of immunogenicity: a Syn [3]: 1 (peptides inducing an immune response with OD halfmax between 1000 and 51.)
2,"RSAEGAPC [p5605, mimotope]",–
2,"RSEDGAPC [p5607, mimotope]",–
2,"RSEEGAPC [p5590, mimotope]",Competition [2]: 1; class of immunogenicity: a Syn [3]: 1 (peptides inducing an immune response with OD halfmax between 1000 and 51.)
2,"TASWKGEC [p5548, mimotope]",Competition [2]: 1
2,"TPSWAGEC [p5558, mimotope]",–

# The next lines start with the substance.
Substance,Binding [1],other results
"ANDEGAPC [p5591, mimotope]",2,–
Alpha-synuclein [p4446],2,detection/binding by monoclonal antibody 12-9-9 in ELISA [1]: detected; also recorded: retained full binding capacities; detection/binding by monoclonal antibody 12-9-9 in ELISA ([1]; listed as Alpha-Synuclein): detected similarly; detection/binding by monoclonal antibody 12-9-9 in ELISA ([1]; listed as alpha-synuclein protein): recognizes
Beta-Synuclein [p4447],–,detection/binding by monoclonal antibody 12-9-9 in ELISA [1]: not detected; detection/binding by monoclonal antibody 12-9-9 in ELISA ([1]; listed as beta-synuclein protein): does not detect
"CKNEEGAP [p5435, reference compound]",2,Competition [2]: 1
"CTPSWKGE [p5560, mimotope]",2,–
"DPSFALEC [p5465, mimotope]",2,class of immunogenicity: a Syn [3]: 0 (peptides inducing no immune response or a very low immune response with OD halfmax around 50 or lower.)
"EEGAPQC [p5400, reference compound]",–,detection/binding by monoclonal antibody 12-9-9 in ELISA [1]: lost binding
"EGAPQC [p5401, reference compound]",–,detection/binding by monoclonal antibody 12-9-9 in ELISA [1]: lost binding
"HNAEGAPC [p5598, mimotope]",1,–
"HNDEGAPC [p5596, mimotope]",2,–
"HNEEGAPC [p5444, mimotope]",2,detection/binding by monoclonal antibody 12-9-9 in ELISA [1]: detected much weaker than the human epitope
"HSAEGAPC [p5604, mimotope]",1,–
"HSDEGAPC [p5608, mimotope]",1,–
"HSEEGAPC [p5593, mimotope]",1,–
"KAEEGAPC [p5438, mimotope]",1,–
"KNEAGAPC [p5440, mimotope]",–,detection/binding by monoclonal antibody 12-9-9 in ELISA [1]: not detected
"KPSFKNEC [p5461, mimotope]",2,class of immunogenicity: a Syn [3]: 0 (peptides inducing no immune response or a very low immune response with OD halfmax around 50 or lower.)
"KQEEGAPC [p5447, mimotope]",2,–
"KSDEGAPC [p5600, mimotope]",2,Competition [2]: 1; class of immunogenicity: a Syn [3]: 1 (peptides inducing an immune response with OD halfmax between 1000 and 51.)
"KSEDGAPC [p5601, mimotope]",2,–
"LGKNEC [p5406, reference compound]",–,detection/binding by monoclonal antibody 12-9-9 in ELISA [1]: lost binding
"LGKNEEC [p5405, reference compound]",–,detection/binding by monoclonal antibody 12-9-9 in ELISA [1]: lost binding

Substance,Binding [1],other results
"LGKNEEGAC [p5403, reference compound]",–,detection/binding by monoclonal antibody 12-9-9 in ELISA [1]: lost binding
"LGKNEEGAPQC [p4453, reference compound]",2,detection/binding by monoclonal antibody 12-9-9 in ELISA [1]: detected; also recorded: retained full binding capacities
"LGKNEEGC [p5404, reference compound]",–,detection/binding by monoclonal antibody 12-9-9 in ELISA [1]: lost binding
"LPSFRLEC [p5466, mimotope]",1,class of immunogenicity: a Syn [3]: 0 (peptides inducing no immune response or a very low immune response with OD halfmax around 50 or lower.)
"MGKGEEGYPQC [p4454, reference compound]",2,Titer in animals OD halfmax injected pep. [4]: 17000; class of immunogenicity: a Syn [3]: 1 (peptides inducing an immune response with OD halfmax between 1000 and 51.)
"NEEGAPQC [p5399, reference compound]",–,detection/binding by monoclonal antibody 12-9-9 in ELISA [1]: lost binding
"QASFAMEC [p5547, mimotope]",1,–
"QASSKLDC [p5549, mimotope]",1,–
"QPSFAMEC [p5462, mimotope]",2,class of immunogenicity: a Syn [3]: 0 (peptides inducing no immune response or a very low immune response with OD halfmax around 50 or lower.)
"QPSSKLDC [p5468, mimotope]",2,class of immunogenicity: a Syn [3]: 0 (peptides inducing no immune response or a very low immune response with OD halfmax around 50 or lower.)
"RNDEGAPC [p5587, mimotope]",2,Competition [2]: 2; class of immunogenicity: a Syn [3]: 1 (peptides inducing an immune response with OD halfmax between 1000 and 51.)
"RNEDGAPC [p5588, mimotope]",2,Competition [2]: 1
"RQDDGAPC [p5610, mimotope]",2,–
"RQDEGAPC [p5602, mimotope]",2,Competition [2]: 1
"RQEDGAPC [p5603, mimotope]",2,Competition [2]: 1
"RQEEGAPC [p5589, mimotope]",2,–
"RSDEGAPC [p5606, mimotope]",2,–
"SPSFKQEC [p5463, mimotope]",2,class of immunogenicity: a Syn [3]: 0 (peptides inducing no immune response or a very low immune response with OD halfmax around 50 or lower.)
"TPAWKGEC [p5551, mimotope]",1,–
"TPSAKGEC [p5557, mimotope]",–,Competition [2]: 1
"TPSWKGEC [p5464, mimotope]",2,Competition [2]: 1; class of immunogenicity: a Syn [3]: 0 (peptides inducing no immune response or a very low immune response with OD halfmax around 50 or lower.)

# Source: patent US8828942B2, “Means for treating synucleinopathies” (Affiris AG, priority 2009, dated 2014)
